Paper PMC11879040, “Advancing systemic toxicity risk assessment: Evaluation of a NAM-based toolbox approach” (Toxicological Sciences, 2024)
pEC50: −log10 of the molar value. Where two headings read alike, the source gives them in different places.

Tests used:
[1] = tested on: Potassium Voltage-Gated Channel Kv non-selective, KCNQ1 (r); assay: IPP KCNQ1 binding (antagonist radioligand); set-up: species or system rat
[2] = tested on: Gamma-aminobutyric acid receptor subunit alpha-1 BZD site, GABRA1A (r); assay type: binding, rat
[3] = tested on: Sodium channel protein type 5 subunit alpha (site 2), SCN5A (r); assay type: binding, rat
[4] = target: T1, Adenosine receptor A2a, ADORA2A (h) (Homo sapiens, UniProt P29274); assay: IPP ADORA2A binding (agonist radioligand); details: IPP screening at 100 uM; control NECA
T1 construct: purchased Eurofins Cerep (SafetyScreen44-based IPP panel)
T1 sequence (P29274 whole entry): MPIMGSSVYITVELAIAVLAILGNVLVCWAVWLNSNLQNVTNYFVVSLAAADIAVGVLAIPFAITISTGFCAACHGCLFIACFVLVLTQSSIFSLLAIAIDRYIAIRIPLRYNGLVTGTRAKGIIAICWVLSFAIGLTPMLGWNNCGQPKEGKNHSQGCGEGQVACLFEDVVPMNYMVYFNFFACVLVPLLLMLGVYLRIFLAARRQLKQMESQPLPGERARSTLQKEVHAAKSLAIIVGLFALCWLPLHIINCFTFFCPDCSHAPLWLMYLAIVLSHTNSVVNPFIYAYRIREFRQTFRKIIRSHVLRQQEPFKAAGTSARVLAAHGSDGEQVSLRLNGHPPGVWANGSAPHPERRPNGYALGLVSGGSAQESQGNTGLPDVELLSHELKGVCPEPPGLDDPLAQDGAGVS

[5] = target: T2, Progesterone receptor, PGR (h) (Homo sapiens, UniProt P06401); assay: biochemical; assay type: biochemical
T2 sequence (P06401 1-933): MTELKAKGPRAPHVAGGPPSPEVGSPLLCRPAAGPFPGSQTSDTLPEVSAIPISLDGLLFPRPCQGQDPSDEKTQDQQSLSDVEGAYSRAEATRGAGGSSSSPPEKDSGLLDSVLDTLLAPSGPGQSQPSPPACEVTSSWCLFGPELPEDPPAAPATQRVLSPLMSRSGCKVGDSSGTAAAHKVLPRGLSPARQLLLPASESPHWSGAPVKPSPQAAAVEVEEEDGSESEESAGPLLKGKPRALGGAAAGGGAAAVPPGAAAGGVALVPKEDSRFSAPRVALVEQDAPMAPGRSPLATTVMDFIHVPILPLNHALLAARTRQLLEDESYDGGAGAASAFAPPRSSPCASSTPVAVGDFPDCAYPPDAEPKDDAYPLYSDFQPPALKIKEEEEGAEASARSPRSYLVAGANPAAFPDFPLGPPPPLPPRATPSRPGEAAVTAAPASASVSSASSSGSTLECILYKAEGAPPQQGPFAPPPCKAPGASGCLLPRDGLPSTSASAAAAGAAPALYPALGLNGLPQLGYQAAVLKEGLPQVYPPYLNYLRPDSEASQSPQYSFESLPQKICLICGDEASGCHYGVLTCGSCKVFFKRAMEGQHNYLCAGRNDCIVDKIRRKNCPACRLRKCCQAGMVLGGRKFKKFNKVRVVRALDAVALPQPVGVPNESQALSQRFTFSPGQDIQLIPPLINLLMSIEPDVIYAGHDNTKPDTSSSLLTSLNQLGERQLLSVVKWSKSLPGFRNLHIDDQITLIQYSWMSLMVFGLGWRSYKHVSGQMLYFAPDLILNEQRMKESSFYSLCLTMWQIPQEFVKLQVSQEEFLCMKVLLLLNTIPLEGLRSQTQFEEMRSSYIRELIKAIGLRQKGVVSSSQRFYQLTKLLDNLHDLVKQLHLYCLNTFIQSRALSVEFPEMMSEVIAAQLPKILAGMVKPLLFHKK

[6] = tested on: Thyroid hormone receptor alpha, THRA (h); assay: IPP THRA coactivator recruitment (agonist); assay type: biochemical, human; details: 100 uM; agonist; T3; * denotes assay interference (2-Amino-6-chloro-4-nitrophenol, HC Red 3)
Tubulin (r) = assay: IPP Tubulin binding; set-up: species or system rat; details: 100 uM; ligand/control Colchicine
HepG2 cells [7] = assay: Cell stress panel (CSP), 24 h, 8 concentrations, BIFROST global PoD; assay type: cell-based; details: HepG2; cell stress panel PoD
Description: Compounds were tested using the previously developed cell stress panel ([Hatherell et al. 2020]) and the expanded biomarker panel outlined in Middleton et al. HepG2 cells were treated with all compounds for 24 h across 8 concentrations prior to biomarker analysis. The same plate layout and number of replicates (3 biological and 2 technical) were used as previously for each assay within the panel.

HepG2 cells [8] = assay: High-throughput transcriptomics (HTTr, TempO-Seq), HepG2, 24 h; assay type: cell-based, human; details: HepG2
Description: (§1) HepG2, HepaRG, and MCF7 cells were treated with each compound for 24 h across a dose range of 7 concentrations and lysed using TempO-Seq lysis buffer (BioSpyder Technologies, proprietary kit, see [Middleton et al. 2022] for method details). Sequencing was performed using TempO-Seq (BioClavis) version 2 of the human whole transcriptome panel and analyzed as described previously in Middleton et al.

HepaRG cells = assay: High-throughput transcriptomics (HTTr, TempO-Seq), HepaRG, 24 h; assay type: cell-based, human; details: HepaRG
Description: as §1

MCF7 cells = assay: High-throughput transcriptomics (HTTr, TempO-Seq), MCF7, 24 h; assay type: cell-based, human; details: MCF-7
Description: as §1

[9] = tested on: Glutamate receptor ionotropic NMDA 1 non-selective, GRIN1 (r); details: IPP screening at 100 uM; control CGS 19755
[10] = human
mouse = details: cited from earlier work
[11] = target: T3, Constitutive androstane receptor CAR, NR1I3 (h) (Homo sapiens, UniProt Q14994); assay type: biochemical
T3 sequence (Q14994 1-352): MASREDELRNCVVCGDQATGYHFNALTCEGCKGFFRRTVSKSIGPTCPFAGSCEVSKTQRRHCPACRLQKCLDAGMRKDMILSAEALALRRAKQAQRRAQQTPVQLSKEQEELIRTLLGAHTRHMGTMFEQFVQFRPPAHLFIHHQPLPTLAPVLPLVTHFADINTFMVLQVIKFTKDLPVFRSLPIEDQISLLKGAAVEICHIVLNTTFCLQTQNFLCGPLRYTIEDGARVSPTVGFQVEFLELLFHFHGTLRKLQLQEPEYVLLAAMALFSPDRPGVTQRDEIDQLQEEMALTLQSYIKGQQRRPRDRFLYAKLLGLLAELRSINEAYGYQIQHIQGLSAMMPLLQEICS

[12] = target: Potassium voltage-gated channel subfamily H member 2 hERG, KCNH2 (h) (Homo sapiens, UniProt Q12809); details: 100 uM; [3H] Dofetilide; control Terfenadine
Chain of Potassium voltage-gated channel subfamily H member 2 hERG, KCNH2 (h) (Q12809 whole entry): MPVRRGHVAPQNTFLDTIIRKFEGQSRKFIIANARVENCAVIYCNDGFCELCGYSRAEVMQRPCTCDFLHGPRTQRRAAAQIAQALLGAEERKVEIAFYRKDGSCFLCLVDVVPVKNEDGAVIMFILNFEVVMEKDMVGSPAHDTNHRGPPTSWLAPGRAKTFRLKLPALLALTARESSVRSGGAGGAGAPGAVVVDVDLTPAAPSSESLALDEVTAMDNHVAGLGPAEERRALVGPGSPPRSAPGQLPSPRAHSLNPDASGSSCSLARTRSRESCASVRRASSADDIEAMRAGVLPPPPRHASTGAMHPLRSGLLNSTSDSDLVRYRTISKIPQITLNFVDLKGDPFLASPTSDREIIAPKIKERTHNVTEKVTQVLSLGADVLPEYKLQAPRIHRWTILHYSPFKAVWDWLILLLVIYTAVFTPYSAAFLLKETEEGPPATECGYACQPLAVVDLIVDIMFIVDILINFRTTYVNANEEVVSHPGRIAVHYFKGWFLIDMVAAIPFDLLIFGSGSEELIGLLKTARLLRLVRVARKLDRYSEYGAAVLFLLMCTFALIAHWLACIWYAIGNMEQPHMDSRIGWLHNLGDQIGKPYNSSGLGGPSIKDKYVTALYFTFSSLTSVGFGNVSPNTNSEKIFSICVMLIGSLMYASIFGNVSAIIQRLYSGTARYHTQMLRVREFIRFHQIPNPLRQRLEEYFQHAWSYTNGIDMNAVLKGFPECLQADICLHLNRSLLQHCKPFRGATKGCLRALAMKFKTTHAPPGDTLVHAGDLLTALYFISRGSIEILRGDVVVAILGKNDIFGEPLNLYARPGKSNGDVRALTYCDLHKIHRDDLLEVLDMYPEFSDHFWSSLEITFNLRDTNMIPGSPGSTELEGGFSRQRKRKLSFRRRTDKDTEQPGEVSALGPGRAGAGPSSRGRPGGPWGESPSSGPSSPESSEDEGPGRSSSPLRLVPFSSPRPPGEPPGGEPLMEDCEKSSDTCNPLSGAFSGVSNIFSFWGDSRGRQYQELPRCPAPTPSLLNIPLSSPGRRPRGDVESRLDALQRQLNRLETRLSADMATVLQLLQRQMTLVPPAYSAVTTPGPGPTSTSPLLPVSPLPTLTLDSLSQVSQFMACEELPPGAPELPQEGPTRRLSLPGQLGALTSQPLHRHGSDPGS

[13] = target: T4, Pregnane X receptor PXR, NR1I2 (h) (Homo sapiens, UniProt O75469)
T4 sequence (O75469 1-434): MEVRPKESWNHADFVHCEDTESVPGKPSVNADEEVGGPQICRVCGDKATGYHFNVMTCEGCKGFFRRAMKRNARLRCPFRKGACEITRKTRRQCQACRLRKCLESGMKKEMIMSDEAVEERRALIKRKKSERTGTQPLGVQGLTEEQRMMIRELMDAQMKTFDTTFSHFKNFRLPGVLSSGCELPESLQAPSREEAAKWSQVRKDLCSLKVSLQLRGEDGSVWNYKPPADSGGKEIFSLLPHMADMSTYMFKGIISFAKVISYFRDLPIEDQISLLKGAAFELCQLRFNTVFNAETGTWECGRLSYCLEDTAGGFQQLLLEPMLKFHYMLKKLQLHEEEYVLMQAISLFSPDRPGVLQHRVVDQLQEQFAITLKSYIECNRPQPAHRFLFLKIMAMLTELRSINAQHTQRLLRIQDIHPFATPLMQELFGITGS

## O=P1(N(CCCl)CCCl)NCCCO1 (stereo not drawn) [Cyclophosphamide, 2-[Bis(2-chloroethyl)amino]-1,3,2lambda~5~-oxazaphosphinan-2-one]
[1]
  Specific binding: 17.5%
[2]
  Specific binding: 19.4%
[3]
  Specific binding: 12.4%
[4]
  Specific binding: 15.0%
[5]
  pEC50: < 3.52
[6]
  IPP screening %, Coactivator recruitment: -1.0%
Tubulin (r)
  IPP screening %, Specific binding: -4.0%
HepG2 cells [7]
  pod_cell_stress PoD: 3.329 µM
HepG2 cells [8]; HTTr BIFROST PoD
  pod_httr_bifrost PoD: 118.124 µM
HepG2 cells [8]; HTTr minimum pathway BMD(L)
  podl_path_minbmd PoD: 783.625 µM
HepaRG cells; HTTr BIFROST PoD
  pod_httr_bifrost PoD: 7.071 µM
HepaRG cells; HTTr minimum pathway BMD(L)
  podl_path_minbmd PoD: 31.838 µM
MCF7 cells; HTTr BIFROST PoD
  pod_httr_bifrost PoD: 0.08892 µM
MCF7 cells; HTTr minimum pathway BMD(L)
  podl_path_minbmd PoD: 210.107 µM
[9]
  Specific binding: 6.8%
[10]
  risk: 1
mouse; mouse, 42 days, developmental neurotox study, ref ToxRefDB/Paul-Friedman et al. (2020)/regulatory opinions
  PoD (NOAEL): 45 mg/kg bw/day

## Nc1ccc(NCCO)c([N+](=O)[O-])c1 [HC Red 3, 2-(4-Amino-2-nitroanilino)ethan-1-ol]
[1]; IPP screening at 100 uM, control α-dendrotoxin
  Specific binding: -2.7%
[2]; IPP screening at 100 uM, control diazepam
  Specific binding: 16.3%
[3]; IPP screening at 100 uM, control veratridine
  Specific binding: 38.7%
[4]
  Specific binding: 18.0%
[11]
  IPP Dose Response PoD: CAR antagonist effect: [29.7,46.9]
[6]
  IPP screening %, Coactivator recruitment: 628.0* %
Tubulin (r)
  IPP screening %, Specific binding: -13.0%
HepG2 cells [7]
  pod_cell_stress PoD: 1.583 µM
[9]
  Specific binding: 0.4%
[12]
  IPP screening %, Specific binding: 16.3%
[13]
  IPP Dose Response PoD: PXR antagonist: [4.11, 6.71]
[10]
  risk: 0
mouse; ref SCCS
  NOAEL before adjustment for 5 day dosing regimen: NOAEL of 125 mkd adjusted for 5 day dosing regimen. 90 mkd used as critical PoD by SCCS
